The text below walks through data of patent publication US7662814B2, “4-aminothieno[2,3-d]pyrimidine-6-carbonitrile derivatives as PDE7 inhibitors” (Laboratorios Almirall, S.A., priority 2003, dated 2010).

One data set relates to PDE7. As to the kind of experiment: PDE7 Assay Procedure ([3H]-cAMP SPA). The settings on record: PDE7 inhibition, 15 nM 3',5'[3H]-cAMP, 1 hour at room temperature. The format is biochemical. On the procedure: All compounds are resuspended in DMSO at a stock concentration of 10 mM. […] All dilutions are performed in 96 well plates.
For each reaction, 10 microliters of the diluted compounds are poured into “low binding” assay plates. 80 microliters of a reaction mixture containing 50 mM Tris pH 7.5, 8.3 mM MgCl2, 1.7 mM EGTA, and 15 nM 3′,5′[3H]-cAMP (around 150000 dpm) are added to each well. The reaction is initiated by adding 10 microliters of a solution containing PDE7 to the reaction mixture. The plate is then incubated under stirring for 1 hour at room temperature. After incubation the reaction is stopped with 50 microlitres (0.89 mg) of PDE SPA beads (Amersham Pharmacia Biotech RPNQ0150), and the resulting mixture is allowed to settle for 20 minutes before counting in a microtitre plate counter.

Each structure is given as a SMILES string.

`COc1ccc(-c2nc(N3CCOCC3)c3c(C)c(C#N)sc3n2)cc1OC` [Example 31, 2-(3,4-Dimethoxyphenyl)-5-methyl-4-morpholin-4-ylthieno[2,3-d]pyrimidine-6-carbonitrile]: the melting point lay within 194 to 196 °C. In the data set on PDE7, this compound had an IC50 of under 1000 nM.

As to `COc1ccc(-c2nc(N3CCOCC3)c3c(C)c(C#N)sc3n2)cc1` [Example 22, 2-(4-Methoxyphenyl)-5-methyl-4-morpholin-4-ylthieno[2,3-d]pyrimidine-6-carbonitrile], the melting point lay in the range of 204 to 206 °C.
